In brackets after ≈: the same amount, converted by molar mass.
These compounds were tested on Mycobacterium tuberculosis variant bovis BCG (assay: Antibacterial activity against Mycobacterium bovis BCG ATCC 35734 up to 2 weeks by HT-SPOTi assay). Settings: ATCC 35734, 336 h.
Assay type: functional

**Q.** How did the MIC turn out when CCCCCCCC(=O)NCC#Cc1cn([C@H]2C[C@H](O)[C@@H](CO)O2)c(=O)[nH]c1=O was run?
**A.** > 250 µg/mL

**Q.** Which MIC does the source give for CCCCCCCC(=O)NCC#Cc1cn([C@H]2C[C@H](O)[C@@H](COP(=O)(N[C@@H](C)C(=O)OC)Oc3cccc4ccccc34)O2)c(=O)[nH]c1=O (stereo partly drawn) here?
**A.** 62.5 µg/mL (≈ 89.5 µM)

**Q.** How did the MIC turn out when CCCCCCCC(=O)NCC#Cc1cn([C@H]2C[C@H](O)[C@@H](COP(=O)(N[C@@H](C)C(=O)OCC)Oc3cccc4ccccc34)O2)c(=O)[nH]c1=O (stereo partly drawn) was run?
**A.** 125 µg/mL (≈ 175 µM)

**Q.** With CCCCCCCC(=O)NCC#Cc1cn([C@H]2C[C@H](O)[C@@H](COP(=O)(N[C@@H](C)C(=O)OCC(C)C)Oc3cccc4ccccc34)O2)c(=O)[nH]c1=O (stereo partly drawn) as the compound, how does the MIC read?
**A.** 125 µg/mL (≈ 169 µM)

**Q.** With CCCCCCCC(=O)NCC#Cc1cn([C@H]2C[C@H](O)[C@@H](COP(=O)(N[C@@H](C)C(=O)OCc3ccccc3)Oc3cccc4ccccc34)O2)c(=O)[nH]c1=O (stereo partly drawn) as the compound, how does the MIC read?
**A.** 250 µg/mL (≈ 323 µM)

**Q.** Which MIC does the source give for CCCCCCCC(=O)NCC#Cc1cn([C@H]2C[C@H](O)[C@@H](COP(=O)(N[C@@H](C)C(=O)OC)Oc3ccccc3)O2)c(=O)[nH]c1=O (stereo partly drawn) here?
**A.** > 250 µg/mL

**Q.** For CCCCCCCC(=O)NCC#Cc1cn([C@H]2C[C@H](O)[C@@H](COP(=O)(N[C@@H](C)C(=O)OCC)Oc3ccccc3)O2)c(=O)[nH]c1=O (stereo partly drawn), which MIC is on record?
**A.** 250 µg/mL (≈ 377 µM)

**Q.** How did the MIC turn out when CCCCCCCC(=O)NCC#Cc1cn([C@H]2C[C@H](O)[C@@H](COP(=O)(N[C@@H](C)C(=O)OCCC)Oc3ccccc3)O2)c(=O)[nH]c1=O (stereo partly drawn) was run?
**A.** 125 µg/mL (≈ 185 µM)

**Q.** How did the MIC turn out when CCCCCCCC(=O)NCC#Cc1cn([C@H]2C[C@H](O)[C@@H](COP(=O)(N[C@@H](C)C(=O)OCc3ccccc3)Oc3ccccc3)O2)c(=O)[nH]c1=O (stereo partly drawn) was run?
**A.** 125 µg/mL (≈ 172 µM)

**Q.** For CCCCCCCC(=O)NCC#Cc1cn([C@H]2C[C@H](O)[C@@H](COP(=O)(N[C@H](C)C(=O)OCc3ccccc3)Oc3ccccc3)O2)c(=O)[nH]c1=O (stereo partly drawn), which MIC is on record?
**A.** 62.5 µg/mL (≈ 86.2 µM)

**Q.** With CCCCCCCC(=O)NCC#Cc1cn([C@H]2C[C@H](O)[C@@H](COP(=O)(NCC(=O)OCc3ccccc3)Oc3ccccc3)O2)c(=O)[nH]c1=O (stereo partly drawn) as the compound, how does the MIC read?
**A.** > 250 µg/mL

**Q.** For CCCCCCCC(=O)NCC#Cc1cn([C@H]2C[C@H](O)[C@@H](COP(=O)(NC(C)(C)C(=O)OCc3ccccc3)Oc3ccccc3)O2)c(=O)[nH]c1=O (stereo partly drawn), which MIC is on record?
**A.** 125 µg/mL (≈ 169 µM)

**Q.** How did the MIC turn out when CCCCCCCC(=O)NCC#Cc1cn([C@H]2C[C@H](O)[C@@H](COP(=O)(N[C@H](C(=O)OCc3ccccc3)C(C)C)Oc3ccccc3)O2)c(=O)[nH]c1=O (stereo partly drawn) was run?
**A.** 125 µg/mL (≈ 166 µM)

Reference: ChEMBL document CHEMBL3259765, “ProTides of N-(3-(5-(2'-deoxyuridine))prop-2-ynyl)octanamide as potential anti-tubercular and anti-viral agents” (Bioorg Med Chem, 2014)
